Reference: patent US7371720B2, “Cationic peptides of the phylloseptin family isolated from the skin secretion of Phyllomedusa hypochondrialis” (Empressa Brasileira de Pesquisa Agropecuaria - Embrapa, priority 2001, dated 2008)
Peptide text beside a SMILES is read from it.

What was measured:
Assay type in all cases: cell-based
[1] = test system: Escherichia coli ATTC 25922; conditions: 20 h, 37° C., TSB, 100% growth inhibition
Experimental: (§1) The microorganisms Escherichia coli ATTC 25922, Pseudomonas aeroginosa ATTC 27853, Staphylococcus aureus ATTC 25923 and Enterococcus faecalis ATTC 29212 and a Brazilian strain of P. aeroginosa were used for the anti-microbial assay
(§2) The microorganisms were cultured in stationary culture at 37° C. Bacteria were grown in Tryptic Soy Broth (TSB). The bioassays were performed by liquid growth inhibition assay lawn as described by Bulet et al (Bulet, P., Dimarcq, J. L., Hetru, C., Lagueux, M., Charlet, M., Hegy, G., VanDorsselaer, A. and Hoffmann, J. A. 1993. J. Biol. Chem. 268, 14893-14897). Molecules of Phylloseptin I were dissolved in sterile distilled and deionized water and diluted 8-fold in TSB (OXIOD England) broth. Various concentrations of PSI solution were tested, being the highest 128 μg/ml. The initial inoculum was approximately 1×10^5 colony forming units (CFU)/ml and limit of detection was 10^2 CFU/ml. The final volume was 250 μl (25 μl of the peptide test in water, 25 μl of the inoculum in TSB, and 200 μl of TSB broth). The minimal inhibitory concentration (MIC) was measured for turbidity (OD at 595 nm) 20 h after all microorganisms were grown in stationary culture at 37° C. The lowest concentration of the peptide in which no growth occurred was defined as the MIC.
(§3) The minimal inhibitory concentrations (MICs) of the isolated Phylloseptin I against several Gram-positive and Gram-negative bacteria were determined as described by Park et al (Park, C. B., Kim, M. S., and Kim, S. C. 1996. 218 Biochem. Biophys. Res. Commun. 408-413.). […] That is, the minimal inhibitory concentration was defined as the peptide concentration which produces 100% of microorganism growth inhibition after 20 h incubation in culture media.

[2] = test system: Enterococcus faecalis ATTC 29212; conditions: 20 h, 37° C., TSB, 100% growth inhibition
Experimental: as §1, §2, §3

[3] = test system: Staphylococcus aureus ATTC 25923; conditions: Staphilococcus aureus ATTC; 20 h, 37° C., TSB; 100% growth inhibition
Experimental: as §1, §2, §3

[4] = test system: Pseudomonas aeruginosa wt; conditions: Pseudomonas aeruginosa wt (Brazilian strain); 20 h, 37° C., TSB; 100% growth inhibition
Experimental: as §1, §2, §3

[5] = test system: Pseudomonas aeroginosa ATTC 27853; conditions: Pseudomonas aeruginosa ATTC; 20 h, 37° C., TSB; 100% growth inhibition
Experimental: as §1, §2, §3

[6] = test system: human red blood cells; experiment: Hemolysis assay
Experimental: Human erythrocytes (blood type O^−) from a healthy person were freshly prepared prior to each experiment. Hemolytic activity was assayed as described by Aboudy etal (Aboudy, Y., Mendelson, E., Shalit, I., Bessalle, R., Fridikin, M. 1994. Int. J. Peptide Protein Res. 43, 573-582.) with minor modifications. Three milliliters of freshly prepared erythrocytes (for methodology see Gibson, B. W., Tang, D., Mandrell, R., Kelly, M. and Spindel, E. R. 1991. J. Biol. Chem. 266, 23103-23111.21) was washed with isotonic phosphate-buffered saline (PBS), pH 7.4, until the color of the supernatant turned clear. The washed erythrocytes were then diluted to a final volume of 20 ml in the same buffer. Aliquots of cell suspentions (190 μl) containing samples (10 μl) were serially diluted in PBS, incubated at 37° C. for 30 min and then centrifuged at 4000×g for 5 min; 100 μl of supernatant was taken, diluted to 1.0 ml with PBS, and monitored at 567 nm. The relative optical density, as compared with that of the cell suspension treated with 0.2% Triton X-100, was defined as % hemolysis.
The hemolytic activity of Phylloseptin I and II was tested at different concentrations.

Row | Molecule | Minimal Inhibitory concentration [1] | Minimal Inhibitory concentration [2] | Minimal Inhibitory concentration [3] | Minimal Inhibitory concentration [4] | Minimal Inhibitory concentration [5] | also measured
1 | CC1(C)S[C@@H]2[C@H](NC(=O)[C@H](N)c3ccccc3)C(=O)N2[C@H]1C(=O)O [Amplicilyn] | 64 µg/mL | 128 µg/mL |  |  |  | 
2 | O=C(N[C@H](CO)[C@H](O)c1ccc([N+](=O)[O-])cc1)C(Cl)Cl [Chloranfenicol] | 32 µg/mL | 32 µg/mL | 32 µg/mL |  |  | 
3 | CC[C@H](C)[C@H](NC(=O)[C@H](C)NC(=O)[C@H](CO)NC(=O)[C@@H](NC(=O)[C@H](C)NC(=O)[C@H](CC(N)=O)NC(=O)[C@@H](NC(=O)[C@H](C)NC(=O)[C@H](Cc1c[nH]cn1)NC(=O)[C@@H]1CCCN1C(=O)[C@@H](NC(=O)[C@H](CC(C)C)NC(=O)[C@H](CO)NC(=O)[C@H](CC(C)C)NC(=O)[C@@H](N)Cc1ccccc1)[C@@H](C)CC)[C@@H](C)CC)C(C)C)C(=O)N[C@@H](C)C(=O)N[C@@H](CCCCN)C(=O)N[C@@H](Cc1c[nH]cn1)C(=O)N[C@@H](CC(N)=O)C(=O)O [PS I, Phe Leu Ser Leu Ile Pro His Ala Ile Asn Ala Val Ser Ala Ile Ala Lys His Asn] (H-FLSLIPHAINAVSAIAKHN-OH) | 16 µg/mL | 8 µg/mL | 16 µg/mL | 6 µg/mL | 8 µg/mL | % Hemolysis of human red blood cells ([6]; 1 μg/mL (0.496 μM), 37° C., 30 min, relative to 0.2% Triton X-100): 0.00%; % Hemolysis of human red blood cells ([6]; 2 μg/mL (0.990 μM), 37° C., 30 min, relative to 0.2% Triton X-100): 0.00%; % Hemolysis of human red blood cells ([6]; 4 μg/mL (1.980 μM), 37° C., 30 min, relative to 0.2% Triton X-100): 0.00%; % Hemolysis of human red blood cells ([6]; 8 μg/mL (3.968 μM), 37° C., 30 min, relative to 0.2% Triton X-100): 0.30%; % Hemolysis of human red blood cells ([6]; 16 μg/mL (7.937 μM), 37° C., 30 min, relative to 0.2% Triton X-100): 0.57%; % Hemolysis of human red blood cells ([6]; 32 μg/mL (15.873 μM), 37° C., 30 min, relative to 0.2% Triton X-100): 0.60%; % Hemolysis of human red blood cells ([6]; 64 μg/mL (31.746 μM), 37° C., 30 min, relative to 0.2% Triton X-100): 0.98%; % Hemolysis of human red blood cells ([6]; 128 μg/mL (63.492 μM), 37° C., 30 min, relative to 0.2% Triton X-100): 1.98%
4 | CC[C@H](C)[C@H](NC(=O)[C@H](C)NC(=O)[C@H](Cc1c[nH]cn1)NC(=O)[C@@H]1CCCN1C(=O)[C@@H](NC(=O)[C@H](CC(C)C)NC(=O)[C@H](CO)NC(=O)[C@H](CC(C)C)NC(=O)[C@@H](N)Cc1ccccc1)[C@@H](C)CC)C(=O)N[C@@H](CC(N)=O)C(=O)N[C@@H](C)C(=O)N[C@H](C(=O)N[C@@H](CO)C(=O)N[C@H](C(=O)N[C@@H](CC(C)C)C(=O)N[C@H](C(=O)N[C@@H](Cc1c[nH]cn1)C(=O)N[C@@H](Cc1c[nH]cn1)C(=O)N[C@@H](Cc1ccccc1)C(=O)O)C(C)C)[C@@H](C)O)C(C)C [PS II, Phe Leu Ser Leu Ile Pro His Ala Ile Asn Ala Val Ser Thr Leu Val His His Phe] (H-FLSLIPHAINAVSTLVHHF-OH) |  |  |  |  |  | % Hemolysis of human red blood cells ([6]; red cells of human, 1 μg/mL): 0.00%; % Hemolysis of human red blood cells ([6]; red cells of human, 2 μg/mL): 0.00%; % Hemolysis of human red blood cells ([6]; red cells of human, 4 μg/mL): 0.10%; % Hemolysis of human red blood cells ([6]; red cells of human, 8 μg/mL): 0.28%; % Hemolysis of human red blood cells ([6]; red cells of human, 16 μg/mL): 0.70%; % Hemolysis of human red blood cells ([6]; red cells of human, 32 μg/mL): 0.80%; % Hemolysis of human red blood cells ([6]; red cells of human, 64 μg/mL): 1.05%; % Hemolysis of human red blood cells ([6]; red cells of human, 128 μg/mL): 2.05%
5 | Gentamicyn | 64 µg/mL |  |  | 64 µg/mL | 64 µg/mL | 
6 | Polimixyn B | 64 µg/mL |  |  | 16 µg/mL | 16 µg/mL | 
